Data reported in US6780866B2, “Analgesic composition and method” (priority 2001, dated 2004).
Several values for one entry are separate records, joined by “and”; a condition that tells them apart may be missing. Equal entries are not always repeated.

How the values were obtained:
[1] = test system: formalin-induced inflammatory pain; design: species or system Wistar male rats; conditions: rat, in vivo
[2] = test system: heat-induced tail-flick (nociceptive pain); design: species or system Kunming mice; conditions: mouse, in vivo
Procedure: 320 screened mice, half male and half female, were randomly divided into 16 groups. They were not given food, only water 12 hours prior to dosing.
The heat tail flick analgesia meter includes a heat source consisting of a 12 V, 50 watt, 8.75 mm projector lamp. The light beam from the heat source was focused and directed to a point on the tail of a mouse being tested, having a distance of 1-2 mm plus ⅓ of the tail length to the tail end.
The test drugs were given intramuscularly. […] The tail-flick latencies, which were assessed in response to a noxious heat stimulus, i.e., the response time from applying radiant heat on the dorsal surface of the tail to the occurrence of tail flick, were measured and recorded at 15, 30, 45, 60, 90, 120, 150, 180 min. after dosing. For each measurement, three readings were made consecutively one minute apart, and their average was recorded as the latency. The testing on one animal would be terminated when tail-flick was not observed within 20 seconds, and the latency would be recorded as 20 seconds. The pain inhibition rate was calculated according to the following formula for the purpose of assessing the analgesia potency: […]
The results were processed with SPSS, a statistical software provided by SPSS, Inc. of Chicago, Ill., USA. Half effective dose (ED50) and half inhibition dose (ID50) were calculated with the probit method.

[3] = test system: formalin-induced inflammatory pain; conditions: rat, in vivo; cited from earlier work
[4] = test system: pain; conditions: in vivo; cited from earlier work

## CN1CC[C@]23c4c5ccc(O)c4O[C@H]2[C@@H](O)C=C[C@H]3[C@H]1C5.Cl [Morphine, Morphine hydrochloride]
[1]
  ID50 of morphine: 2.30 mg/kg
[2]
  ED95 of morphine: 0.77
  ID50 of morphine: 0.33 mg/kg

## N=C1NC(O)C2C3OC4(O)OC(C(O)C2(N1)C4O)C3(O)CO (stereo not drawn) [TTX, octahydro-12-(hydroxymethyl)-2-imino-5,9:7,10a-dimethano-10aH-[1,3]dioxocino[6,5-d]pyrimidine-4,7,10,11,12-pentol]
[1]; 3 mg/kg
  Inhibition rate (%): 32.9% and 11.6%
  Pain reaction score: 169.1 ± 47.2 and 223.0 ± 58.3
[2]; 3 mg/kg
  Inhibition rate (%): 5.44% and 12.06%
  Latency after dosing: 5.88 ± 1.00 and 6.04 ± 0.76
[3]
  inhibition: 71.7%
[4]
  analgesic potency relative to morphine: about 3,000 times
